Laboratory results as given in the NIST ThermoML archive (doi:10.1016/j.jct.2012.11.015).

Legend:
[1] = Liquid; for speed of sound: Sing-around technique in a fixed-path interferometer; for mass density: Vibrating tube method
[2] = refractive index (Na D-line) (dimensionless); conditions: 298.15 K; 101.33 kPa; Liquid; Standard Abbe refractometry
[3] = xn = mol fraction of the nth substance listed; conditions: 101 kPa, Liquid, Vibrating tube method

CCCCCCCCCCO [decan-1-ol]
[1]
Conditions | mass density, 298.15 K [kg/m3] | mass density, 303.15 K [kg/m3] | mass density, 308.15 K [kg/m3] | mass density, 313.15 K [kg/m3] | speed of sound, 298.15 K [m/s]
101 kPa | – | 822.853 | 819.427 | 816.383 | –
101.33 kPa | 826.562 | – | – | – | 1380

Conditions | refractive index
[2] | 1.4348

CCCCCCCCCCO [decan-1-ol] + CN(C)C=O
mass density [kg/m3], [3]
Conditions | x2 = 0 | x2 = 0.2361 | x2 = 0.4193 | x2 = 0.5688 | x2 = 0.6724 | x2 = 0.7496 | x2 = 0.8185 | x2 = 0.8748 | x2 = 0.923 | x2 = 0.9632
298.15 K | 826.562 | 838.6 | 851.13 | 864.685 | 876.794 | 887.827 | 899.61 | 910.986 | 922.298 | 933.094
303.15 K | 822.853 | 834.589 | 846.845 | 860.269 | 872.216 | 883.031 | 894.603 | 905.795 | 916.997 | 927.772
308.15 K | 819.427 | 830.903 | 843.033 | 856.394 | 868.282 | 879.008 | 890.399 | 901.448 | 912.559 | 923.333
313.15 K | 816.383 | 827.267 | 839.221 | 852.343 | 863.94 | 874.443 | 885.574 | 896.397 | 907.34 | 918.051

CN(C)C=O [dimethylformamide]
[1]
Conditions | mass density, 298.15 K [kg/m3] | mass density, 303.15 K [kg/m3] | mass density, 308.15 K [kg/m3] | mass density, 313.15 K [kg/m3] | speed of sound, 298.15 K [m/s]
101 kPa | – | 939.047 | 934.721 | 929.478 | –
101.33 kPa | 944.29 | – | – | – | 1457.7

Conditions | refractive index
[2] | 1.428

CN(C)C=O [dimethylformamide] + CCCCCCCCCCO
[3], x1 = 1
Conditions | mass density [kg/m3]
298.15 K | 944.29
303.15 K | 939.047
308.15 K | 934.721
313.15 K | 929.478

CN(C)C=O [dimethylformamide] + CCCCCCCCCO
[3], x1 = 1
Conditions | mass density [kg/m3]
298.15 K | 944.29
303.15 K | 939.047
308.15 K | 934.721
313.15 K | 929.478

CN(C)C=O [dimethylformamide] + CCCCCCCCO
[3], x1 = 1
Conditions | mass density [kg/m3]
298.15 K | 944.29
303.15 K | 939.047
308.15 K | 934.721
313.15 K | 929.478

CCCCCCCCCO [nonan-1-ol]
[1]
Conditions | mass density, 298.15 K [kg/m3] | mass density, 303.15 K [kg/m3] | mass density, 308.15 K [kg/m3] | mass density, 313.15 K [kg/m3] | speed of sound, 298.15 K [m/s]
101 kPa | – | 821.044 | 817.582 | 814.098 | –
101.33 kPa | 824.478 | – | – | – | 1365.5

Conditions | refractive index
[2] | 1.4319

CCCCCCCCCO [nonan-1-ol] + CN(C)C=O
mass density [kg/m3], [3]
Conditions | x2 = 0 | x2 = 0.2201 | x2 = 0.3969 | x2 = 0.5458 | x2 = 0.6515 | x2 = 0.7321 | x2 = 0.8042 | x2 = 0.8644 | x2 = 0.9168 | x2 = 0.9596
298.15 K | 824.478 | 836.826 | 849.646 | 863.512 | 875.893 | 887.234 | 899.18 | 910.842 | 922.441 | 933.098
303.15 K | 821.044 | 833.085 | 845.647 | 859.175 | 871.335 | 882.498 | 894.281 | 905.742 | 917.225 | 927.834
308.15 K | 817.582 | 829.399 | 841.793 | 855.283 | 867.284 | 878.301 | 889.932 | 901.314 | 912.742 | 923.379
313.15 K | 814.098 | 825.49 | 837.685 | 851.074 | 862.916 | 873.711 | 885.08 | 896.217 | 907.487 | 918.072

CCCCCCCCO [octan-1-ol]
[1]
Conditions | mass density, 298.15 K [kg/m3] | mass density, 303.15 K [kg/m3] | mass density, 308.15 K [kg/m3] | mass density, 313.15 K [kg/m3] | speed of sound, 298.15 K [m/s]
101 kPa | – | 818.209 | 814.742 | 810.629 | –
101.33 kPa | 821.222 | – | – | – | 1347.8

Conditions | refractive index
[2] | 1.4273

CCCCCCCCO [octan-1-ol] + CN(C)C=O
mass density [kg/m3], [3]
Conditions | x2 = 0 | x2 = 0.2198 | x2 = 0.3728 | x2 = 0.5208 | x2 = 0.6277 | x2 = 0.7118 | x2 = 0.7877 | x2 = 0.8519 | x2 = 0.9085 | x2 = 0.9556
298.15 K | 821.222 | 835.186 | 847.253 | 861.646 | 874.238 | 885.914 | 898.138 | 909.952 | 921.843 | 932.914
303.15 K | 818.209 | 831.811 | 843.584 | 857.568 | 869.964 | 881.458 | 893.435 | 905.109 | 916.796 | 927.592
308.15 K | 814.742 | 828.086 | 839.752 | 853.623 | 865.852 | 877.239 | 889.113 | 900.709 | 912.287 | 923.224
313.15 K | 810.629 | 823.708 | 835.263 | 849.056 | 861.125 | 872.405 | 884.137 | 895.506 | 907.01 | 917.847
